{"source": "patent US6391873B1", "about": "“Imidazodiazepine derivative” (priority 1999, dated 2002)", "key": {"[1]": {"molecular_target": "benzodiazepine receptors", "assay": "3H-flumazenil in vitro binding assay using homogenized rat cortex", "conditions": "inhibition of binding of tritiated flumazenil", "method": "The preclinical pharmacological profile of the compound of the present invention for treatment of anxiety disorders, and/or treatment of convulsions and/or non-sedative treatment of sleep disorders involves no, or only minimal motor impairment, in a standard test of motor performance in animals (e.g. rotarod test in mice with motor function evaluated in the same animals at different time points up to 1 hour after intravenous injection).\nThe affinity of the compound of the invention to the central benzodiazepine receptors was established in vitro according to the methods described in Nature 294, 763-765 (1981) and J. Neurochemistry 37, 714-722 (1981). According to these methods, the inhibition of the binding of tritiated flumazenil to the specific benzodiazepine receptors in the cortex of rats by the respective test substance is determined. The affinity was calculated as pKi (for background information on pKi see: Cheng, Y. and W. H. Prusoff, Relationship between the inhibition constant (Ki) and the concentration of inhibitor which causes 50 percent inhibition (IC50) of an enzymatic reaction. Biochem. Pharmac. 22: 3099-3108, 1973) as the measure of the specific binding of tritiated flumazenil to specific benzodiazepine receptors in the cortex of rat."}, "[2]": {"tested_on": "mice", "assay": "rotating rod test (rotarod test), motor impairment", "assay_type": "in vivo, mouse", "conditions": "for ED50 for a rotarod deficit: consistently at different time points up to 1 hour after intravenous injection", "method": "The motor impairing properties of the compound of the invention can be determined, for example, in the rotating rod test (rotarod test). […] These mice were housed in Macrolon® type I cages for one or more days following arrival in the laboratory colony (12:12 hour light-dark cycle). They have free access to a standard rodent diet (Kliba Mühlen, Kaiseraugst, Switzerland) and tap water in the home cage up to testing. They are brought into the test laboratory at least 30 min before the test which was done during the light portion of the day-night cycle. In the rotating rod test the animals are placed on a horizontally arranged, smooth metal rod having a diameter of 3 cm, which is rotated at 2 revolutions per min. Initially, the animals are given the opportunity of familiarizing themselves with the test situation for at least 30 sec. Subsequently, those animals which succeed in remaining on the rod for at least 1 min are selected for use in the test. These selected animals are then given the test preparations intravenously in different dosages. At various points in time post-injection, it is then determined whether the animals are able to remain wallking on the rod for a minimum period (minimum period of 10 sec at time points 15 sec. 30 sec. 1 min and 2 min; minimum period of 1 min at time points 5 min, 15 min, 30 min, 60 min). The dosage at which 50% of the animals are capable of remaining on the rod (i.e., ED50) was determined at each of these time points."}, "[3]": {"tested_on": "mice", "assay": "fatalities after i.v. administration in mice (rotarod test)", "assay_type": "in vivo, mouse", "conditions": "up to 100 mg/kg i.v."}, "[4]": {"tested_on": "rats", "assay": "fatalities after i.v. administration in rats", "assay_type": "in vivo", "conditions": "100 mg/kg i.v."}, "[5]": {"tested_on": "animals", "assay": "anticonvulsant effects in animals", "assay_type": "in vivo", "conditions": "low doses"}, "[6]": {"tested_on": "mice", "assay": "ethanol interaction in mice"}, "[7]": {"tested_on": "rats", "assay": "cognitive impairment in rats"}, "[8]": {"tested_on": "mice", "assay": "mouse operant conflict model of anxiety", "conditions": "oral bolus circa 30 min prior to conflict test; punished responding"}, "[9]": {"tested_on": "cytochrome P450 isoenzymes", "assay": "inhibition of cytochrome P450 isoenzymes"}, "[10]": {"tested_on": "mice", "assay": "tolerance of the anxiolytic effect in mice after chronic treatment"}, "[11]": {"tested_on": "mice", "assay": "withdrawal signs in chronically treated mice challenged with a benzodiazepine receptor antagonist", "conditions": "chronically treated mice challenged with benzodiazepine receptor antagonist (e.g., sarmazenil)"}}}
{"smiles": "CN(C)Cc1nc(-c2ncn3c2CN(C)C(=O)c2c(Cl)cccc2-3)no1", "note": "[compound of the invention, 7-Chloro-3-(5-dimethylaminomethyl-[1,2,4]oxadiazol-3-yl)-5-methyl-4,5-dihydro-imidazo[1,5-a][1,4]benzodiazepin-6-one]", "values": [{"measurement": "Affinity to benzodiazepine receptors", "setting": "[1]", "value": 9.1}, {"measurement": "Rotating rod test ED50", "setting": "[2]; 15 sec after administration", "value": ">10", "unit": "mg/kg i.v."}, {"measurement": "Rotating rod test ED50", "setting": "[2]; 20 sec after administration", "value": ">10", "unit": "mg/kg i.v."}, {"measurement": "Rotating rod test ED50", "setting": "[2]; 60 sec after administration", "value": ">10", "unit": "mg/kg i.v."}, {"measurement": "Rotating rod test ED50", "setting": "[2]; 2 min after administration", "value": ">10", "unit": "mg/kg i.v."}, {"measurement": "Rotating rod test ED50", "setting": "[2]; 5 min after administration", "value": ">10", "unit": "mg/kg i.v."}, {"measurement": "Rotating rod test ED50", "setting": "[2]; 15 min after administration", "value": ">10", "unit": "mg/kg i.v."}, {"measurement": "Rotating rod test ED50", "setting": "[2]; 30 min after administration", "value": ">10", "unit": "mg/kg i.v."}, {"measurement": "Rotating rod test ED50", "setting": "[2]; 60 min after administration", "value": ">10", "unit": "mg/kg i.v."}, {"measurement": "ED50 for a rotarod deficit", "setting": "[2]", "value": "> 10", "unit": "mg/kg i.v."}, {"measurement": "ED50 for a rotarod deficit", "setting": "[2]; listed as compound of the present invention", "value": "greater than 10 mg/kg i.v."}, {"measurement": "fatalities", "setting": "[3]", "value": "without fatalities occurring"}, {"measurement": "fatalities", "setting": "[4]", "value": "without fatalities occurring"}, {"measurement": "anticonvulsant effects", "setting": "[5]", "value": "show anticonvulsant effects"}, {"measurement": "ethanol interaction", "setting": "[6]", "value": "low ethanol interaction"}, {"measurement": "cognitive impairment", "setting": "[7]", "value": "minimal cognitive impairment"}, {"measurement": "minimum effective dose (statistically significant anxiolytic-like effect)", "setting": "[8]", "value": 3, "unit": "mg/kg p.o."}, {"measurement": "inhibition of cytochrome P450 isoenzymes", "setting": "[9]", "value": "minimal or no inhibition"}, {"measurement": "reduction (so-called tolerance) of the anxiolytic effect", "setting": "[10]", "value": "minimal reduction"}, {"measurement": "withdrawal signs", "setting": "[11]", "value": "minimal withdrawal signs"}]}
